Measured values taken from patent publication US20070276034A1, “Compounds, compositions and methods for the treatment of synucleinopathies” (priority 2002, published 2007).
Like-named read-outs stand apart in the source and are kept apart here.

How the values were obtained:
Assay type in all cases: biochemical
Aβ 1-42 fibrils [1] = target: T1, Aβ 1-42 fibrils (Homo sapiens, UniProt P05067); assay: Thioflavin T fluorometry - disruption of pre-formed Aβ 1-42 Alzheimer's fibrils; conditions: 25 μM pre-fibrillized Aβ 1-42, 37° C., 3 days; for inhibition: read-out: % Inhibition Aβ (result ± S.D.)
T1 construct: purchased Bachem Inc
T1 sequence (P05067 672-713): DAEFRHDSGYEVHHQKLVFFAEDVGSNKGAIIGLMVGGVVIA
Text: In one study, Thioflavin T fluorometry was used to determine the effects of the compounds, and of EDTA (as a negative control). In this assay Thioflavin T binds specifically to fibrillar amyloid, and this binding produces a fluorescence enhancement at 485 nm that is directly proportional to the amount of amyloid fibrils formed. The higher the fluorescence, the greater the amount of amyloid fibrils formed (Naki et al., Lab. Invest. 65:104-110, 1991; Levine III, Protein Sci. 2:404-410, 1993; Amyloid: Int. J. Exp. Clin. Invest. 2:1-6, 1995).
(§1) In this study, 25 μM of pre-fibrillized Aβ 1-42 (Bachem Inc) was incubated at 37° C. for 3 days either alone, or in the presence of one of the compounds or EDTA (at Aβ:test compound weight ratios of 1:1, 1:0.1, 1:0.01 or 1:0.001). Following 3-days of co-incubation, 50 μl of each incubation mixture was transferred into a 96-well microtiter plate containing 150 μl of distilled water and 50 μl of a Thioflavin T solution (i.e. 500 mM Thioflavin T in 250 mM phosphate buffer, pH 6.8). The fluorescence was read at 485 nm (444 nm excitation wavelength) using an ELISA plate fluorometer after subtraction with buffer alone or compound alone, as blank.

IAPP fibrils [2] = target: T2, IAPP fibrils (Homo sapiens, UniProt P10997); assay: Thioflavin T fluorometry - disruption of type 2 diabetes IAPP fibrils; conditions: 25 μM pre-fibrillized IAPP, 37° C., 3 days; for inhibition: read-out: % Inhibition IAPP (result ± S.D.)
T2 construct: purchased Bachem Inc
T2 sequence (P10997 34-70 limits assumed): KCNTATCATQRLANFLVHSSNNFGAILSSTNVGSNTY
Method: In this assay Thioflavin T binds specifically to fibrillar amyloid, and this binding produces a fluorescence enhancement at 485 nm that is directly proportional to the amount of IAPP fibrils present. The higher the fluorescence, the greater the amount of IAPP fibrils present (Naki et al, Lab. Invest. 65:104-110, 1991; Levine III, Protein Sci. 2:404-410, 1993; Amyloid: Int. J. Exp. Clin. Invest. 2:1-6, 1995).
as §1, with “IAPP” for “Aβ 1-42”, “IAPP:test” for “Aβ:test”

IAPP fibrils [3] = target: T2, IAPP fibrils; assay: Congo red binding assay with IAPP fibrils; conditions: 3-day incubation
Method: (§2) In the Congo red binding assay the ability of a given test compound to alter amyloid (in this case, IAPP) binding to Congo red is quantified. In this assay, IAPP and test compounds were incubated for 3 days and then vacuum filtered through a 0.2 μm filter. The amount of IAPP retained in the filter was then quantitated following staining of the filter with Congo red. After appropriate washing of the filter, any lowering of the Congo red color on the filter in the presence of the test compound (compared to the Congo red staining of the amyloid protein in the absence of the test compound) was indicative of the test compound's ability to diminish/alter the amount of aggregated and congophilic IAPP.
In the study, the ability of IAPP fibrils to bind Congo red in the absence or presence of increasing amounts of the compounds or EDTA (at IAPP:test compound weight ratios of 1:1, 1:0.1, 1:0.01 or 1:0.001) was determined.

Aβ 1-42 fibrils [4] = target: T1, Aβ 1-42 fibrils; assay: Circular dichroism spectroscopy of Aβ 1-42 fibrils; conditions: for disruption of β-sheet structure in Aβ 1-42 fibrils (CD minima at 218 nm): 3 days co-incubation, 25 μM Aβ 1-42 (FIG. 1, FIG. 2); for dose-response of disruption of β-sheet structure of Aβ 1-42 fibrils (CD minima at 218 nm): Aβ:test compound wt/wt ratios of 1:0.1, 1:1 and 1:10 (FIG. 3)
Method: Circular dichroism (CD) spectroscopy is a method that can be used to determine the effects of test compounds to disrupt the secondary structure conformation of amyloid fibrils. In one study, as described in this example, circular dichroism spectroscopy was used to determine the effects of different compounds of the invention on β-sheet conformation of Aβ 1-42 fibrils. For this study, Aβ 1-42 (Bachem Inc., Torrance, Calif.) was first dissolved in a 2 mM NaOH solution, maintaining the pH of these solutions above 10. […] Aβ 1-42 was then incubated at 37° C. in the absence or presence of different compounds at an Aβ:test compound wt/wt ratios of 1:0.1, 1:1 and 1:10. After 3 days of incubation, CD spectra were recorded on a Jasco 810 spectropolarimeter (Easton, Md.). All CD spectra were collected with 0.05 cm quartz cells. Wavelength traces were scanned from 190-260 nm at 0.5 nm increments with a bandwidth of 5 nm, at a scan speed of 10 nm/minute, a response time of 32 seconds, and a data pitch of 0.5 nm. The whole system was equilibrated and continuously flushed with nitrogen at 10 ml/minute. […] Ellipticity in degrees was converted to MRE ([Q]; molar residue ellipticity) using the formula [Q]=100•[…]; where Q is the ellipticity in degrees; […]

Aβ 1-42 fibrils [5] = target: T1, Aβ 1-42 fibrils; assay: Congo red binding assay with Aβ 1-42 fibrils; conditions: 3-day incubation
Method: as §2, with “a” for “a given”, “Aβ)” for “IAPP)”, “Aβ 1-42” for “IAPP”, “Aβ.” for “IAPP.”
In one study, the ability of Aβ fibrils to bind Congo red in the absence or presence of increasing amounts of the compounds or EDTA (at Aβ:test compound weight ratios of 1:1, 1:0.1, 1:0.01 or 1:0.001) was determined.

monomeric Aβ 1-42 = target: T3, monomeric Aβ 1-42 (Homo sapiens, UniProt P05067); assay: SDS-PAGE/Western blot of Aβ 1-42 after incubation with compounds; conditions: 25 μM pre-fibrillized Aβ 1-42, 37° C., 3 days, 0.2 μm filtrate, antibody 6E10
T3 construct: purchased Bachem Inc
T3 sequence (P05067 672-713): as the sequence (P05067 672-713) above
Method: In this latter study, triplicate samples of pre-fibrillized Aβ 1-42 (25 μM) was incubated at 37° C. for 3 days, alone or in the presence of the compounds or EDTA. Five micrograms of each sample was then filtered through a 0.2 μm filter. Protein recovered from the filtrate was then loaded, and ran on a 10-20% Tris-Tricine SDS-PAGE, blotted to nitrocellulose and detected using an Aβ-antibody (clone 6E10; Senetek).

[6] = Aβ:test compound wt/wt ratio 1:0.001
[7] = Aβ:test compound wt/wt ratio 1:0.01
[8] = Aβ:test compound wt/wt ratio 1:0.1
[9] = Aβ:test compound wt/wt ratio 1:1
[10] = IAPP:test compound wt/wt ratio 1:0.001
[11] = IAPP:test compound wt/wt ratio 1:0.01
[12] = IAPP:test compound wt/wt ratio 1:0.1
[13] = IAPP:test compound wt/wt ratio 1:1

Row | Structure (SMILES) | inhibition (Aβ 1-42 fibrils [1]; [6]) [%] | inhibition (Aβ 1-42 fibrils [1]; [7]) [%] | inhibition (Aβ 1-42 fibrils [1]; [8]) [%] | inhibition (Aβ 1-42 fibrils [1]; [9]) [%] | inhibition (IAPP fibrils [2]; [10]) [%] | inhibition (IAPP fibrils [2]; [11]) [%] | inhibition (IAPP fibrils [2]; [12]) [%] | inhibition (IAPP fibrils [2]; [13]) [%] | % Inhibition IAPP (result ± S.D.), Congo red binding (IAPP fibrils [3]; [10]) [%] | % Inhibition IAPP (result ± S.D.), Congo red binding (IAPP fibrils [3]; [11]) [%] | % Inhibition IAPP (result ± S.D.), Congo red binding (IAPP fibrils [3]; [12]) [%] | % Inhibition IAPP (result ± S.D.), Congo red binding (IAPP fibrils [3]; [13]) [%] | disruption of β-sheet structure in Aβ 1-42 fibrils (CD minima at 218 nm) (Aβ 1-42 fibrils [4]) | dose-response of disruption of β-sheet structure of Aβ 1-42 fibrils (CD minima at 218 nm) (Aβ 1-42 fibrils [4]) | detection of Aβ 1-42 monomers (~4 kilodalton band) on Western blot (monomeric Aβ 1-42) | other results
1 | Oc1ccc(CN[C@@H]2CCCC[C@H]2NCc2ccc(O)c(O)c2)cc1O (relative stereo) [Compound 12, N,N′-bis(3,4-dihydroxybenzyl)-trans-1,2-diaminocyclohexane] | 0 | 10.8 ± 21.9 | 82 ± 1.13 | 99.7 ± 0.17 | 13 ± 10.3 | 37.5 ± 0.76 | 86 ± 0.76 | 99.9 ± 0.19 | 0.0 ± 2.40 | 6.9 ± 2.45 | 8.3 ± 0.85 | 39.8 ± 0.26 | marked disruption of β-sheet structure | dose-dependent decrease in the minima |  | 
2 | CN1C2CCC1C(Cc1ccc(O)c(O)c1)C(=O)C2Cc1ccc(O)c(O)c1 (stereo not drawn) [Compound 19, 2,4-bis(3,4-dihydroxybenzyl)-3-tropinone] |  |  |  |  |  |  |  |  |  | 6.0 ± 0.78 | 21.0 ± 3.70 | 49.3 ± 3.97 |  |  | not detected | % Inhibition Aβ (result ± S.D.) (Aβ 1-42 fibrils [1]; [6]): 10.8 ± 1.38%; % Inhibition Aβ (result ± S.D.) (Aβ 1-42 fibrils [1]; [7]): 46.2 ± 2.98%; % Inhibition Aβ (result ± S.D.) (Aβ 1-42 fibrils [1]; [8]): 91.1 ± 0.66%; % Inhibition Aβ (result ± S.D.) (Aβ 1-42 fibrils [1]; [9]): 99.1 ± 0.56%; % Inhibition IAPP (result ± S.D.) (IAPP fibrils [2]; [10]): 16.7 ± 10.20%; % Inhibition IAPP (result ± S.D.) (IAPP fibrils [2]; [11]): 51.7 ± 2.98%; % Inhibition IAPP (result ± S.D.) (IAPP fibrils [2]; [12]): 94.0 ± 0.10%; % Inhibition IAPP (result ± S.D.) (IAPP fibrils [2]; [13]): 100.0 ± 0.24%; % Inhibition Aβ (result ± S.D.), Congo red binding (Aβ 1-42 fibrils [5]; [7]): 7.4 ± 2.20%; % Inhibition Aβ (result ± S.D.), Congo red binding (Aβ 1-42 fibrils [5]; [8]): 22.4 ± 2.19%; % Inhibition Aβ (result ± S.D.), Congo red binding (Aβ 1-42 fibrils [5]; [9]): 48.1 ± 2.00%
3 | O=C(C=Cc1ccc(O)c(O)c1)NCc1ccc(O)c(O)c1 [Compound 61, 3,4-dihydroxycinnamic acid 3,4-dihydroxybenzylamide] | 26 ± 7.51 | 16.9 ± 1.39 | 80.1 ± 4.76 | 100 ± 0.41 | 0.5 ± 6.33 | 35.4 ± 5.68 | 83.6 ± 1.27 | 96.8 ± 0.47 | 0.0 ± 3.87 | 4.0 ± 1.78 | 0.0 ± 7.07 | 23.7 ± 0.39 | marked disruption of β-sheet structure | dose-dependent decrease in the minima |  | 
4 | O=C(NCCc1ccc(O)c(O)c1)Nc1ccc(O)c(O)c1 [Compound 78, 1-(3,4-dihydroxyphenyl)-3-(3,4-dihydroxyphenethyl)urea] | 22.4 ± 5.63 | 57.8 ± 4.63 | 89.7 ± 1.8 | 100 ± 0.78 | 15.3 ± 4.73 | 58.3 ± 1.2 | 92.4 ± 0.27 | 99.5 ± 0.26 | 6.6 ± 3.04 | 19.9 ± 2.12 | 16.7 ± 6.80 | 56.3 ± 5.32 | marked decrease in the minima |  | not detected | 
